# Experimental data from US20230398130A1, “METHODS AND COMPOSITIONS FOR DIFFERENTIATING STEM CELLS” (Massachusetts Institute of Technology, priority 2020, published 2023).
# Counter-ions that a name gives are not always drawn.
# System: ISC-enriched organoids
# Assay: Primary screen, 384-well 2.5-D organoid differentiation (ENR+CD, 6 days, Target Selective Inhibitor Library, vs whole-plate median): ATP (CellTiter-Glo 3D, CTG)
# [1] = Dose 0.08 uM, standard z score of FC
# [2] = Dose 0.40 uM, standard z score of FC
# [3] = Dose 2.00 uM, standard z score of FC
# [4] = Dose 10.00 uM, standard z score of FC
# [5] = Dose 0.40 uM, primary screen, standard z score
# [6] = Dose 2.00 uM, primary screen, standard z score
# [7] = Dose 10.00 uM, primary screen, standard z score
Structure (SMILES),Z.CTG [1],Z.CTG [2],Z.CTG [3],Z.CTG [4],Z.CTG [5],Z.CTG [6],Z.CTG [7],"Z.CTG (Dose 0.08 uM, primary screen, standard z score)"
CCN(c1cc(-c2ccc(CN3CCOCC3)cc2)cc(C(=O)NCc2c(C)cc(C)[nH]c2=O)c1C)C1CCOCC1 [EPZ-6438],0.107,0.178,−0.163,0.802,,,,
CCCCCCCCCCCC1=C(O)C(=O)C=C(O)C1=O [Embelin],−0.770,−1.728,−0.776,−1.720,,,,
CCN(CC)C(=O)/C(C#N)=C/c1cc(O)c(O)c([N+](=O)[O-])c1 [Entacapone],−0.275,−0.154,0.493,−0.935,,,,
CCOc1ccccc1-n1c(C(C)N2CCN(C(=O)COc3ccc(Cl)cc3)CC2)nc2ccccc2c1=O (stereo not shown) [Erastin],0.537,0.681,0.907,0.711,,,,
COc1ccc2nc([S@@+]([O-])Cc3ncc(C)c(OC)c3C)[nH]c2c1 [Esomeprazole Sodium],0.689,0.475,0.923,0.648,,,,
CCc1cccc2c3c([nH]c12)C(CC)(CC(=O)O)OCC3 (stereo not shown) [Etodolac],−0.147,0.117,0.020,0.054,,,,
Cc1nc(C(=O)NCC(=O)O)c(O)c2ccc(Oc3ccccc3)cc12 [FG-4592],0.782,0.679,0.692,0.568,,,,
CCOC(=O)C1=C(C)NC(C)=C(C(=O)OC)C1c1cccc(Cl)c1Cl (stereo not shown) [Felodipine],−0.187,−0.763,0.025,0.078,,,,
CC(C)n1c(/C=C/C(O)CC(O)CC(=O)O)c(-c2ccc(F)cc2)c2ccccc21 (stereo not shown) [Fluvastatin Sodium],−0.384,−1.151,−2.653,−4.206,,,,
COCCCC/C(=N\OCCN)c1ccc(C(F)(F)F)cc1 [Fluvoxamine maleate],0.274,0.607,0.504,0.330,,,,
C=C[C@@]1(C)CC(=O)[C@]2(O)[C@@]3(C)[C@@H](O)CCC(C)(C)[C@@H]3[C@H](O)[C@H](OC(C)=O)[C@@]2(C)O1 [Forskolin],−0.508,−0.418,−0.789,−0.284,,,,
C[C@]12CC[C@@H]3c4ccc(O)cc4C[C@@H](CCCCCCCCC[S+]([O-])CCCC(F)(F)C(F)(F)F)[C@H]3[C@@H]1CC[C@@H]2O (stereo partly shown) [Fulvestrant],0.285,−0.150,0.339,−0.488,,,,
COc1ccc2c(c1)C(=O)N(CCc1ccc(S(=O)(=O)NC(=O)NC3CCCCC3)cc1)C(=O)C2(C)C [Gliquidone],0.297,,,,0.247,0.588,0.320,
CN1C2CCCC1CC(NC(=O)c1nn(C)c3ccccc13)C2 (stereo not shown) [Granisetron HCl],,,,,−0.205,−0.426,−0.710,−0.512
Cc1cc(OCc2nnc(SC3CCCC3)n2-c2cccnc2)ccc1-c1ccc(S(C)(=O)=O)cc1 [NMS-873],0.416,−0.122,−2.173,−3.683,,,,
COc1ccccc1N1CCN(CC(O)COc2cccc3ccccc23)CC1 (stereo not shown) [Naftopidil],−0.093,−0.384,−0.426,−0.316,,,,
COc1ccc2cc([C@H](C)C(=O)O)ccc2c1 [Naproxen],−0.233,−0.162,−1.405,−3.063,,,,
OC(CNCC(O)C1CCc2cc(F)ccc2O1)C1CCc2cc(F)ccc2O1 (stereo not shown) [Nebivolol],0.926,0.526,0.746,0.499,,,,
COC(=O)C1=C(C#N)NC(C)=C(C(=O)OC(C)C)C1c1cccc([N+](=O)[O-])c1 (stereo not shown) [Nilvadipine],0.493,0.324,0.506,0.460,,,,
Cc1c(Cc2ccc3ccccc3n2)c2cc(F)ccc2n1CC(=O)O [OC000459],0.184,−0.155,0.210,0.211,,,,
Cc1sc2c(c1C)C(c1ccc(Cl)cc1)=N[C@@H](CC(=O)Nc1ccc(O)cc1)c1nnc(C)n1-2 [OTX015],−0.092,−0.952,−1.638,−2.169,,,,
NC(=O)N1c2ccccc2CC(=O)c2ccccc21 [Oxcarbazepine],−0.051,−0.247,−0.197,−0.359,,,,
